ChEMBL document CHEMBL1201862, “PubChem BioAssay data set” (2004)
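Interpolation was linear, between the two tested concentrations surrounding the appropriate level; five concentrations were tested over 48 hours in 96-well plates. GI50 = concentration required for 50% inhibition of growth.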 Calls of active or inactive are those of the source. Cut-off read from the data, not from the text of the source: active = GI50 up to about 1.1 µM and inactive = higher.

Key:
Experiment in all cases: NCI anticancer screen, dose series, 48 h
786-0 = system: 786-0
A498 = system: A498
A549 = system: A549
ACHN = system: ACHN
CAKI-1 = system: CAKI-1
CCRF-CEM = system: CCRF-CEM
COLO 205 = system: COLO 205
DU-145 = system: DU-145
EKVX = system: EKVX
HCC 2998 = system: HCC 2998
HCT-116 = system: HCT-116
HCT-15 = system: HCT-15
HL-60 = system: HL-60
HOP-62 = system: HOP-62
HOP-92 = system: HOP-92
HT-29 = system: HT-29
Hs-578T = system: Hs-578T
IGROV-1 = system: IGROV-1
K562 = system: K562
KM12 = system: KM12
M14 = system: M14
MCF7 = system: MCF7
MDA-MB-435 = system: MDA-MB-435
MOLT-4 = system: MOLT-4
Malme-3M = system: Malme-3M
NCI-H23 = system: NCI-H23
NCI-H460 = system: NCI-H460
NCI-H522 = system: NCI-H522
NCI/ADR-RES = system: NCI/ADR-RES
OVCAR-3 = system: OVCAR-3
OVCAR-4 = system: OVCAR-4
OVCAR-5 = system: OVCAR-5
OVCAR-8 = system: OVCAR-8
PC-3 = system: PC-3
RXF 393 = system: RXF 393
SF-268 = system: SF-268
SF-295 = system: SF-295
SF-539 = system: SF-539
SK-MEL-28 = system: SK-MEL-28
SK-MEL-5 = system: SK-MEL-5
SK-OV-3 = system: SK-OV-3
SN12C = system: SN12C
SNB-19 = system: SNB-19
SNB-75 = system: SNB-75
SR = system: SR
SW-620 = system: SW-620
T47D = system: T47D
TK-10 = system: TK-10
U-251 = system: U-251
UACC-257 = system: UACC-257
UACC-62 = system: UACC-62
UO-31 = system: UO-31
LOX IMVI = system: LOX IMVI
MDA-MB-231 = system: MDA-MB-231
MDA-N = system: MDA-N
NCI-H226 = system: NCI-H226
RPMI-8226 = system: RPMI-8226
SK-MEL-2 = system: SK-MEL-2

For `Cn1ccnc1S/C(=C\C=C(C#N)C#N)c1ccc(Cl)cc1`, the GI50 (786-0) was 1.33 µM (inactive), the GI50 (A498) was 1.27 µM (inactive) and the GI50 (A549) was 6.27 µM (inactive). For the same molecule, the GI50 (ACHN) was 0.693 µM (active), the GI50 (CAKI-1) was 1.69 µM (inactive) and the GI50 (CCRF-CEM) was 0.126 µM (active). The GI50 (COLO 205) was 2.99 µM (inactive), the GI50 (DU-145) was 6.04 µM (inactive) and the GI50 (EKVX) was 7.89 µM (inactive). For the same molecule, the GI50 (HCC 2998) was 4.92 µM (inactive), the GI50 (HCT-116) was 0.324 µM (active) and the GI50 (HCT-15) was 2.52 µM. For the same molecule, the GI50 (HL-60) was 0.461 µM (active), the GI50 (HOP-62) was 4.17 µM (inactive) and the GI50 (HOP-92) was 1.31 µM (inactive). The GI50 (HT-29) was 1.67 µM (inactive), the GI50 (Hs-578T) was 4.38 µM (inactive) and the GI50 (IGROV-1) was 2.69 µM (inactive). The GI50 (K562) was 0.252 µM (active), the GI50 (KM12) was 2.06 µM (inactive) and the GI50 (M14) was 0.993 µM (active). For the same molecule, the GI50 (MCF7) was 0.698 µM (active), the GI50 (MDA-MB-435) was 0.951 µM (active) and the GI50 (MOLT-4) was 1.18 µM (inactive). The GI50 (Malme-3M) was 1.04 µM (active), the GI50 (NCI-H23) was 1.61 µM (inactive) and the GI50 (NCI-H460) was 7.33 µM (inactive). The GI50 (NCI-H522) was 2.45 µM (inactive), the GI50 (NCI/ADR-RES) was 2.22 µM (inactive) and the GI50 (OVCAR-3) was 2.22 µM (inactive). For the same molecule, the GI50 (OVCAR-4) was 4.09 µM (inactive), the GI50 (OVCAR-5) was 2.31 µM (inactive) and the GI50 (OVCAR-8) was 1.12 µM (active). For the same molecule, the GI50 (PC-3) was 1.6 µM (inactive), the GI50 (RXF 393) was 1.84 µM (inactive) and the GI50 (SF-268) was 1.84 µM (inactive). The GI50 (SF-295) was 2.87 µM (inactive), the GI50 (SF-539) was 1.21 µM (inactive) and the GI50 (SK-MEL-28) was 4.06 µM (inactive). The GI50 (SK-MEL-5) was 1.13 µM (inactive), the GI50 (SK-OV-3) was 8.07 µM (inactive) and the GI50 (SN12C) was 1.09 µM (active). For the same molecule, the GI50 (SNB-19) was 3.48 µM (inactive), the GI50 (SNB-75) was 5.37 µM (inactive) and the GI50 (SR) was 0.143 µM (active). For the same molecule, the GI50 (SW-620) was 0.303 µM (active), the GI50 (T47D) was 4.42 µM (inactive) and the GI50 (TK-10) was 0.492 µM (active). The GI50 (U-251) was 2.82 µM (inactive), the GI50 (UACC-257) was 2.1 µM (inactive) and the GI50 (UACC-62) was 2.34 µM (inactive). For the same molecule, the GI50 (UO-31) was 2.64 µM (inactive).

`COc1c(C(=O)/C(=N/Nc2ccc(C(=O)O)cc2)C(C)=O)c(O)cc2occc12` was tested, and the GI50 (786-0) was > 100 µM (inactive), the GI50 (A549) was > 100 µM (inactive) and the GI50 (ACHN) was > 100 µM (inactive). The GI50 (CAKI-1) was > 100 µM (inactive), the GI50 (CCRF-CEM) was > 100 µM (inactive) and the GI50 (COLO 205) was > 100 µM (inactive). For the same molecule, the GI50 (DU-145) was > 100 µM (inactive), the GI50 (EKVX) was > 100 µM (inactive) and the GI50 (HCC 2998) was > 100 µM (inactive). The GI50 (HCT-116) was > 100 µM (inactive), the GI50 (HCT-15) was 93.8 µM and the GI50 (HL-60) was 42.8 µM (inactive). The GI50 (HOP-62) was > 100 µM (inactive), the GI50 (HOP-92) was 43.4 µM (inactive) and the GI50 (HT-29) was > 100 µM (inactive). The GI50 (Hs-578T) was > 100 µM (inactive), the GI50 (IGROV-1) was > 100 µM (inactive) and the GI50 (K562) was > 100 µM (inactive). For the same molecule, the GI50 (KM12) was 55 µM (inactive), the GI50 (LOX IMVI) was > 100 µM (inactive) and the GI50 (M14) was > 100 µM (inactive). The GI50 (MCF7) was > 100 µM (inactive), the GI50 (MDA-MB-231) was > 100 µM (inactive) and the GI50 (MDA-MB-435) was 46.7 µM (inactive). For the same molecule, the GI50 (MDA-N) was 35.7 µM (inactive), the GI50 (MOLT-4) was > 100 µM (inactive) and the GI50 (Malme-3M) was 90.8 µM (inactive). The GI50 (NCI-H226) was > 100 µM (inactive), the GI50 (NCI-H23) was > 100 µM (inactive) and the GI50 (NCI-H460) was 82 µM (inactive). For the same molecule, the GI50 (NCI-H522) was 51.3 µM (inactive), the GI50 (NCI/ADR-RES) was > 100 µM (inactive) and the GI50 (OVCAR-3) was > 100 µM (inactive). For the same molecule, the GI50 (OVCAR-5) was > 100 µM (inactive), the GI50 (OVCAR-8) was > 100 µM (inactive) and the GI50 (PC-3) was > 100 µM (inactive). The GI50 (RPMI-8226) was > 100 µM (inactive), the GI50 (RXF 393) was 51.2 µM (inactive) and the GI50 (SF-268) was > 100 µM (inactive). For the same molecule, the GI50 (SF-295) was 82.8 µM (inactive), the GI50 (SF-539) was > 100 µM (inactive) and the GI50 (SK-MEL-28) was > 100 µM (inactive). For the same molecule, the GI50 (SK-MEL-2) was > 100 µM (inactive), the GI50 (SK-MEL-5) was 28.8 µM (inactive) and the GI50 (SK-OV-3) was > 100 µM (inactive). For the same molecule, the GI50 (SN12C) was > 100 µM (inactive), the GI50 (SNB-19) was > 100 µM (inactive) and the GI50 (SNB-75) was 50.7 µM (inactive). For the same molecule, the GI50 (SR) was 68.9 µM (inactive), the GI50 (SW-620) was > 100 µM (inactive) and the GI50 (T47D) was > 100 µM (inactive). The GI50 (TK-10) was 15.6 µM (inactive), the GI50 (U-251) was > 100 µM (inactive) and the GI50 (UACC-257) was > 100 µM (inactive). For the same molecule, the GI50 (UACC-62) was > 100 µM (inactive) and the GI50 (UO-31) was > 100 µM (inactive).
